Structures are written as SMILES. Like-named read-outs stand apart in the source and are kept apart here.

The target of one data set is Pgp/MDR1 (Homo sapiens, UniProt P08183). The settings on record: cited from earlier work.
In a further data set the target is T1, ABCG2/BCRP (Homo sapiens, UniProt Q9UNQ0).
T1 sequence (Q9UNQ0 1-655): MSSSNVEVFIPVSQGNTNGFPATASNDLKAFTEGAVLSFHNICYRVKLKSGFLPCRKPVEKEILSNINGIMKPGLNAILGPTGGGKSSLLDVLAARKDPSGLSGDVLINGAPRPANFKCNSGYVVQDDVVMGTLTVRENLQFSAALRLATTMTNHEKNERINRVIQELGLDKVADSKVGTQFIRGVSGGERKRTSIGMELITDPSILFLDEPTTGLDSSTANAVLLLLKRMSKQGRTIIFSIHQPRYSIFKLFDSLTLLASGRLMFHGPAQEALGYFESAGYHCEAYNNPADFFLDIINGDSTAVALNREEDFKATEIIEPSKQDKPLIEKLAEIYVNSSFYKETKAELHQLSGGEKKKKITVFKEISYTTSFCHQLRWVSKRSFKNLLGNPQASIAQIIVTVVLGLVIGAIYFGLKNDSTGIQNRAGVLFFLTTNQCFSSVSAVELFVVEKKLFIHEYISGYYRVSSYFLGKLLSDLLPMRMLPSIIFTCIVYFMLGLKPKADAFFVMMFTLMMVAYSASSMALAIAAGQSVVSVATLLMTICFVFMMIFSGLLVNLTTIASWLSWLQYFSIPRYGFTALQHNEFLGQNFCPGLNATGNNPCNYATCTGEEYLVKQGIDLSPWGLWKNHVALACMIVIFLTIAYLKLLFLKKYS
The settings on record: cited from earlier work.

For the next data set, the system named is MM cell lines. Kind of data set: BLI-based cytotoxicity assay using LUC-transduced MM cell lines. The settings on record: two MM cell lines, BMMSCs or HS-5. Also on record: species or system human. The protocol: Cell lines and culture: Luciferase (LUC)-transduced MM cell lines RPMI 8226, JJN3, UM9, MM1.s, U266, L363, and OPM-2 were cultured in RPMI 1640 (Life Technologies), supplemented with 10% heat-inactivated HyClone FetalClone I serum (GE Healthcare Life Sciences) and (penicillin, 10.000 U/mL; streptomycin, […]; InVitrogen,). HS-5 was cultured in DMEM (Life Technologies), supplemented with heat-inactivated FBS (Sigma) and antibiotics.

The subject of the next data set is MM cells. The settings on record: previously demonstrated; cited from earlier work.

Sequence of Pgp/MDR1 (P08183 whole entry): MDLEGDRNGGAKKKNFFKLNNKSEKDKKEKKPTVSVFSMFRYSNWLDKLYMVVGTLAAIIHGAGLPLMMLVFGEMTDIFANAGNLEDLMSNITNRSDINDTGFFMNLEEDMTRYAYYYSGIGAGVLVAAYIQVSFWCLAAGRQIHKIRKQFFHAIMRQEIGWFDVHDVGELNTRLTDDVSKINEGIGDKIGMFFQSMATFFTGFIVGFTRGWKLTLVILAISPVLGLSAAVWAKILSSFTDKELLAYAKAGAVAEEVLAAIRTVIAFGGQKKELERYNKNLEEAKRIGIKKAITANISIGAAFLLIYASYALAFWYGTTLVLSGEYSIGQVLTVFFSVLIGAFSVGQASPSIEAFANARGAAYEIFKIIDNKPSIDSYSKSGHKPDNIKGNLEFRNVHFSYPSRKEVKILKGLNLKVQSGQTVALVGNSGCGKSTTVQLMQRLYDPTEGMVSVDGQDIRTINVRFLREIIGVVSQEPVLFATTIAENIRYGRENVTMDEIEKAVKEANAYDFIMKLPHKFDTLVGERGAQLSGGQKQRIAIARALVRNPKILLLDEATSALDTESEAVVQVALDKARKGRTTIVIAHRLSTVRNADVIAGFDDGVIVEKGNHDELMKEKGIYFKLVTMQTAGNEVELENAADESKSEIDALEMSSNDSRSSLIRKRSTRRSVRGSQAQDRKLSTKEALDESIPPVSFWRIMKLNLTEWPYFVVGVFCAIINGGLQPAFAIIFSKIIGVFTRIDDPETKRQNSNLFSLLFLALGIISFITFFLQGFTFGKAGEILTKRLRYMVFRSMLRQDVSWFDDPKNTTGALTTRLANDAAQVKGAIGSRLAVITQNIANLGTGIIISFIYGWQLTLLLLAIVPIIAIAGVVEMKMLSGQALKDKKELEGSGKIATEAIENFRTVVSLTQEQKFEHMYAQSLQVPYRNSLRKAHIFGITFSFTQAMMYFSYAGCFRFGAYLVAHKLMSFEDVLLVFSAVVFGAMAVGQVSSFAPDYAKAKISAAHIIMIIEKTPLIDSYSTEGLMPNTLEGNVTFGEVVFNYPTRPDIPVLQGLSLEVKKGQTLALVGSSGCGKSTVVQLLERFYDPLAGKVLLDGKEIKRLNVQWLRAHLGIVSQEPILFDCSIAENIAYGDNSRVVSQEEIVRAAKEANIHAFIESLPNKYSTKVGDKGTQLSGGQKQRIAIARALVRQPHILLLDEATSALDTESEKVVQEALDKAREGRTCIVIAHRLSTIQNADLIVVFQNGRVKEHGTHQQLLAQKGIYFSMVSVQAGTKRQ

Take `CCc1c2c(nc3ccc(OC(=O)N4CCC(N5CCCCC5)CC4)cc13)-c1cc3c(c(=O)n1C2)COC(=O)[C@]3(O)CC` [irinotecan]: on Pgp/MDR1, the “substrate of efflux pump Pgp/MDR1” value is “substrates”. Further, the “substrate of efflux pump ABCG2/BCRP” value on ABCG2/BCRP was “substrates”. For `CC(C)C[C@H](NC(=O)[C@H](Cc1ccccc1)NC(=O)c1cnccn1)B(O)O` [bortezomib, reference compound], the “lysis of MM cell lines by the drug upon co-culture with stromal cells” value with MM cell lines was “significantly inhibited”. Take `CC[C@@]1(O)C(=O)OCc2c1cc1n(c2=O)Cc2cc3c(CN(C)C)c(O)ccc3nc2-1` [topotecan]: the “substrate of efflux pump Pgp/MDR1” value at Pgp/MDR1 is on record as “substrates”. The “substrate of efflux pump ABCG2/BCRP” value on ABCG2/BCRP is “substrates”. On to `CCc1c2c(nc3ccc(O)cc13)-c1cc3c(c(=O)n1C2)COC(=O)[C@]3(O)CC` [SN-38], for which, on Pgp/MDR1 (not told), the “substrate of efflux pump Pgp/MDR1” value was “substrates”. Besides, the “substrate of efflux pump ABCG2/BCRP” value on ABCG2/BCRP (not told) is “substrates”. Take `COc1cccc2c1C(=O)c1c(O)c3c(c(O)c1C2=O)C[C@@](O)(C(=O)CO)C[C@@H]3O[C@H]1C[C@H](N)[C@H](O)[C@H](C)O1` [doxorubicin, reference compound]: the “lysis of MM cell lines by the drug upon co-culture with stromal cells” value in the data set with MM cell lines is given as “significantly inhibited”.

As for `COCCn1c2c([n+](Cc3cnccn3)c1C)C(=O)c1ccccc1C2=O` [YM155], in the data set on MM cells, the “modulation of BMMSC-mediated protection against CTLs and daratumumab-dependent ADCC” value is given as “effective modulation”.
